Test results from patent US10308608B2, “Histone deacetylase inhibitors” (BIOMARIN PHARMACEUTICAL INC., priority 2015, dated 2019).
Counter-ions that a name gives are not always drawn. Like-named read-outs stand apart in the source and are kept apart here.

Tested on: Frataxin (FXN) mRNA
Test: Effect of HDAC inhibitors on frataxin (FXN) mRNA expression, qRT-PCR in compound-treated iPSC derived neuronal cells
Type: cell-based
Details: iPSC, 24 h
Procedure: Effect of HDAC Inhibitors on Frataxin (FXN) mRNA Expression
Method: mRNA quantification of compound-treated iPSC derived neuronal cells Neuronal stem cells were cultured in Neurobasal A medium (Life technologies #10888022) supplemented with N2, B27 (Life technologies #17502-048 and #17504-044), L-glutamine (Life technologies #25030081), supplemented with 20 ng/ml EGF (R&D Systems #236-EG) and 20 ng/ml bFGF (BioPioneer # HRP-0011). Neuronal differentiation was initiated by removing growth factors and culturing cells in Neurobasal A with N2 and B27. Cells were allowed to differentiate for 16 days. HDAC inhibitory compound was then added and incubate for 24 h. RNA isolation was performed using the RNeasy Plus mini kit (QIAgen #74134) using a QIAcube instrument per manufacturer's instructions. qRT-PCR was performed using qScript One-Step SYBR Green qRT-PCR Kit (Quanta Biosciences 170-8893BR) with the following conditions: 20 minutes at 50° C., 5 minutes at 95° C., and then 40 cycles of 20 seconds at 95° C., 20 seconds at 55° C., 30 seconds at 72° C. The primer sequences to detect expression of FXN were: 5′-[…]-3′ and 5′-[…]-3′.
The data for the following compounds, for FXN mRNA fold induction at a compound concentration of 0.625 μM are shown in Table 1, where A<1, 1<B<2, 2<C<3, 3<D<5, E>5.

[1] = compound concentration of 0.625 μM, 24 h incubation, read-out: FXN mRNA fold induction
[2] = read-out: FXN mRNA fold induction, compound concentration of 0.625 μM, 24 h incubation

SMILES	fold induction at 0.625 µM [1]	fold induction at 0.625 µM [2]
Nc1ccccc1NC(=O)c1ccc(N[C@@H]2CCN(CC3CC3)C2)cc1 [Compound 107, (R)-N-(2-aminophenyl)-4-((1-(cyclopropylmethyl)pyrrolidin-3-yl)amino)benzamide trihydrochloride]	2 to 3	–
Nc1ccccc1NC(=O)c1ccc(N[C@H]2CCN(C3CC3)C2)cc1 [Compound 136, (S)-N-(2-aminophenyl)-4-((1-cyclopropylpyrrolidin-3-yl)amino)benzamide]	1 to 2	–
Nc1ccccc1NC(=O)c1ccc(N[C@H]2CCN(CC3CCCCC3)C2)cc1 [Compound 101, (S)-N-(2-aminophenyl)-4-((1-(cyclohexylmethyl)pyrrolidin-3-yl)amino)benzamide]	2 to 3	–
CC(C)CN1CCC(Nc2ccc(C(=O)Nc3ccccc3N)cc2)CC1 [Compound 112, N-(2-aminophenyl)-4-((1-isobutylpiperidin-4-yl)amino)benzamide trihydrochloride]	1 to 2	–
CC(C)CN1C2CCC1CC(Oc1ccc(C(=O)Nc3ccccc3N)cc1)C2 (centres unmarked) [Compound 72, N-(2-aminophenyl)-4-((8-isobutyl-8-azabicyclo[3.2.1]octan-3-yl)oxy)benzamide dihydrochloride]	–	1 to 2
Nc1ccccc1NC(=O)c1ccc(OC2CCN(C3COC3)CC2)cc1 [Compound 132, N-(2-aminophenyl)-4-((1-(oxetan-3-yl)piperidin-4-yl)oxy)benzamide]	1 to 2	–
CC(C)CN1CC(Oc2ccc(C(=O)Nc3ccccc3N)cc2)C1 [Compound 43, N-(2-aminophenyl)-4-((1-isobutylazetidin-3-yl)oxy)benzamide dihydrochloride]	1 to 2	–
CC(C)(C)CN1CC(Nc2ccc(C(=O)Nc3ccccc3N)cc2)C1 [Compound 90, N-(2-aminophenyl)-4-((1-neopentylazetidin-3-yl)amino)benzamide]	2 to 3	–
Nc1ccccc1NC(=O)c1ccc(O[C@H]2CCN(C3CC3)C2)cc1 [Compound 127, (S)-N-(2-aminophenyl)-4-((1-cyclopropylpyrrolidin-3-yl)oxy)benzamide dihydrochloride]	1 to 2	–
Nc1ccccc1NC(=O)c1ccc(NC2CCCN(CC3CCCCC3)CC2)cc1 (centres unmarked) [Compound 85, N-(2-aminophenyl)-4-((1-(cyclohexylmethyl)azepan-4-yl)amino)benzamide]	2 to 3	–
Nc1ccccc1NC(=O)c1ccc(OC2CC3CCC(C2)N3)cc1 (centres unmarked) [Compound 70, 4-((8-azabicyclo[3.2.1]octan-3-yl)oxy)-N-(2-aminophenyl)benzamide hydrochloride]	1 to 2	–
Nc1ccccc1NC(=O)c1ccc(N[C@@H]2CCN(CC3CCCCC3)C2)cc1 [Compound 109, (R)-N-(2-aminophenyl)-4-((1-(cyclohexylmethyl)pyrrolidin-3-yl)amino)benzamide]	2 to 3	–
Nc1ccccc1NC(=O)c1ccc(NC2CN(C3COC3)C2)cc1 [Compound 135, N-(2-aminophenyl)-4-((1-(oxetan-3-yl)azetidin-3-yl)amino)benzamide]	1 to 2	–
CC1(CN2CC(Oc3ccc(C(=O)Nc4ccccc4N)cc3)C2)CC1 [Compound 47, N-(2-aminophenyl)-4-((1-((1-methylcyclopropyl)methyl)azetidin-3-yl)oxy)benzamide dihydrochloride]	1 to 2	–
CC(C)CN1CCC(Oc2ccc(C(=O)Nc3ccccc3N)cc2)CC1 [Compound 67, N-(2-aminophenyl)-4-((1-isobutylpiperidin-4-yl)oxy)benzamide dihydrochloride]	1 to 2	–
Nc1ccccc1NC(=O)c1ccc(O[C@@H]2CCN(CC3CCCCC3)C2)cc1 [Compound 64, (R)-N-(2-aminophenyl)-4-((1-(cyclohexylmethyl)pyrrolidin-3-yl)oxy)benzamide dihydrochloride]	2 to 3	–
Nc1ccccc1NC(=O)c1ccc(OC2CCN(CC3CCCCC3)CC2)cc1 [Compound 69, N-(2-aminophenyl)-4-((1-(cyclohexylmethyl)piperidin-4-yl)oxy)benzamide dihydrochloride]	1 to 2	–
CN1CCC(Oc2ccc(C(=O)Nc3ccccc3N)cc2)CC1 [Compound 66, N-(2-aminophenyl)-4-((1-methylpiperidin-4-yl)oxy)benzamide dihydrochloride]	1 to 2	–
Nc1ccccc1NC(=O)c1ccc(OC2CCN(CC3CC3)CC2)cc1 [Compound 1, N-(2-aminophenyl)-4-((1-(cyclopropylmethyl)piperidin-4-yl)oxy)benzamide]	1 to 2	–

SMILES	fold induction at 0.625 µM [1]	fold induction at 0.625 µM [2]
Nc1ccccc1NC(=O)c1ccc(OC2CCNCC2)cc1 [Compound 65, N-(2-aminophenyl)-4-(piperidin-4-yloxy)benzamide hydrochloride]	2 to 3	–
Nc1ccccc1NC(=O)c1ccc(OC2CN(C3CC3)C2)cc1 [Compound 125, N-(2-aminophenyl)-4-((1-cyclopropylazetidin-3-yl)oxy)benzamide]	1 to 2	–
Nc1ccccc1NC(=O)c1ccc(NC2CCNCC2)cc1 [Compound 110, dihydrochloride]	2 to 3	–
Nc1ccccc1NC(=O)c1ccc(N[C@H]2CCNC2)cc1 [Compound 94, (S)-N-(2-aminophenyl)-4-(pyrrolidin-3-ylamino)benzamide trihydrochloride]	1 to 2	–
CN1CC[C@@H](Nc2ccc(C(=O)Nc3ccccc3N)cc2)C1 [Compound 103, (R)-N-(2-aminophenyl)-4-((1-methylpyrrolidin-3-yl)amino)benzamide]	1 to 2	–
CC1(CN2CC[C@@H](Oc3ccc(C(=O)Nc4ccccc4N)cc3)C2)CC1 [Compound 63, (R)-N-(2-aminophenyl)-4-((1-((1-methylcyclopropyl)methyl)pyrrolidin-3-yl)oxy)benzamide dihydrochloride]	2 to 3	–
Nc1ccccc1NC(=O)c1ccc(NC2CCN(CC3CC3)CC2)cc1 [Compound 3, N-(2-aminophenyl)-4-((1-(cyclopropylmethyl)piperidin-4-yl)amino)benzamide]	1 to 2	–
CC(C)(O)CN1CCCC(Oc2ccc(C(=O)Nc3ccccc3N)cc2)CC1 (centres unmarked) [Compound 36, N-(2-aminophenyl)-4-((1-(2-hydroxy-2-methylpropyl)azepan-4-yl)oxy)benzamide dihydrochloride]	1 to 2	–
Nc1ccccc1NC(=O)c1ccc(OC2CCCNCC2)cc1 (centres unmarked) [Compound 33, N-(2-aminophenyl)-4-(azepan-4-yloxy)benzamide hydrochloride]	2 to 3	–
Nc1ccccc1NC(=O)c1ccc(NC2CCN(C3CC3)CC2)cc1 [Compound 140, N-(2-aminophenyl)-4-((1-cyclopropylpiperidin-4-yl)amino)benzamide trihydrochloride trihydrochloride]	2 to 3	–
CN1CCC(Nc2ccc(C(=O)Nc3ccccc3N)cc2)CC1 [Compound 111, N-(2-aminophenyl)-4-((1-methylpiperidin-4-yl)amino)benzamide]	1 to 2	–
CC1(CN2CCC(Nc3ccc(C(=O)Nc4ccccc4N)cc3)CC2)CC1 [Compound 113, N-(2-aminophenyl)-4-((1-((1-methylcyclopropyl)methyl)piperidin-4-yl)amino)benzamide trihydrochloride]	2 to 3	–
CC(C)(C)CN1CC[C@H](Oc2ccc(C(=O)Nc3ccccc3N)cc2)C1 [Compound 53, (S)-N-(2-aminophenyl)-4-((1-neopentylpyrrolidin-3-yl)oxy)benzamide]	1 to 2	–
Nc1ccccc1NC(=O)c1ccc(O[C@H]2CCN(C3COC3)C2)cc1 [Compound 128, (S)-N-(2-aminophenyl)-4-((1-(oxetan-3-yl)pyrrolidin-3-yl)oxy)benzamide]	1 to 2	–
Nc1ccccc1NC(=O)c1ccc(OC2CCN(C3CC3)CC2)cc1 [Compound 131, N-(2-aminophenyl)-4-((1-cyclopropylpiperidin-4-yl)oxy)benzamide dihydrochloride]	1 to 2	–
CC(C)CN1CC(Nc2ccc(C(=O)Nc3ccccc3N)cc2)C1 [Compound 88, N-(2-aminophenyl)-4-((1-isobutylazetidin-3-yl)amino)benzamide trihydrochloride]	1 to 2	–
CN1C2CCC1CC(Nc1ccc(C(=O)Nc3ccccc3N)cc1)C2 (centres unmarked) [Compound 116, N-(2-aminophenyl)-4-((8-methyl-8-azabicyclo[3.2.1]octan-3-yl)amino)benzamide trihydrochloride]	–	2 to 3
CC1(CN2CCC(Oc3ccc(C(=O)Nc4ccccc4N)cc3)CC2)CC1 [Compound 68, N-(2-aminophenyl)-4-((1-((1-methylcyclopropyl)methyl)piperidin-4-yl)oxy)benzamide dihydrochloride]	1 to 2	–
CC(C)(O)CN1CC[C@@H](Nc2ccc(C(=O)Nc3ccccc3N)cc2)C1 [Compound 105, (R)-N-(2-aminophenyl)-4-((1-(2-hydroxy-2-methylpropyl)pyrrolidin-3-yl)amino)benzamide trihydrochloride]	2 to 3	–
